We go through three compounds from patent publication US20260207798A1, “CYCLIC PEPTIDES AS PET IMAGING AGENTS OF GRANZYME B” (priority 2022, published 2026).

Like-named read-outs stand apart in the source and are kept apart here. Numbered stars: 1 amine (or outer) side, 2 acyl side, 3 side chain; on linkers, the order of the positions; unused ones are H or OH. Bridge positions count the residues as written; N and C are the ends. Square brackets hold non-standard residues; d marks the D form. Peptide text beside a SMILES is read from it. I, II: the chains in the order shown. * marks the point of attachment. X4 = O=C(O)CN1CCN(CC(=O)O)CC(Cc2ccc(NC(=S)NCCC(=O)N(CCOCCOCCOCCOCCC(=O)[*:1])CCOCCOCCOCCOCCC(=O)[*:2])cc2)N(CC(=O)O)CC1; X3 = CC(C)(C)OC(=O)NCCC(=O)N(CCOCCOCCOCCOCCC(=O)[*:1])CCOCCOCCOCCOCCC(=O)[*:2]; Pro(trans-4-F) = O=C(O)[C@@H]1C[C@@H](F)CN1; Propionyl = CCC(=O)* Some results are limits rather than exact numbers.

In the assay the target is human Granzyme B (hGranzyme B) (Homo sapiens, UniProt P10144). Briefly: Surface plasmon resonance (SPR) binding kinetics to hGranzyme B. On the procedure:
The kinetics of test peptide binding to human Granzyme B (hGranzyme B) was determined by SPR. All experiments were performed at 25° C. using the Biacore 8k+ instrument (Cytiva, Marlborough, MA). The Biacore 8k+ Insight Evaluation Software Version 3.0 was used to fit the data with a 1:1 binding model to determine the association rate constant ka (M^−1s^−1, where “M” ~equals molar and “s” ~equals seconds) and the dissociation rate constant kd (s^−1). These rate constants were used to calculate the equilibrium dissociation constant. KD (M)=kd/ka.
To measure the binding kinetics of peptides of interest, surfaces were prepared by a capture method to a Series S Streptavidin (SA) chip using a 1×HBS-EP+ running buffer (Cytiva). hGranzyme B was diluted to 10 μg/mL in IX HBS-EP+ and flowed over spot 2 of each flow cell on the chip at a flow rate of 10 ul/min for 20 s to achieve a level of capture of ~1100 RU. An unmodified spot 1 of each flow cell was used as a matrix binding control or reference surface. Binding kinetics were measured using single cycle kinetics at 25° C. by injecting 5 concentrations with 3-fold serial dilutions of test peptides from 0.01 μM to 1 μM. Compound dilutions were performed manually in a running buffer containing 1×HBS-EP+(Cytiva), and a final concentration of 2% DMSO. The interaction analyses over hGranzyme B, were performed using a 120 s association time and a 900 s dissociation time. All experiments were conducted at a flow rate of 50 μL/min with a data collection rate of 10 Hz.
Peptide dilution series included 2 zero concentration points (no compound) which were averaged and subtracted from the peptide concentration injection as DMSO control responses. Binding data acquired from the reference surface (matrix binding control) were subtracted from the binding data for hGranzyme B surface on the chip to determine specific binding. Next, the association phase data were solvent corrected to account for any signal fluctuation throughout the experiment due to subtle DMSO concentration differences. Corrected response data were analyzed using the Biacore 8k+ Evaluation Software Version 3.0 according to the manufacturer. SPR data for representative compounds of the disclosure are found in Table 8.

The mark [1] stands for this setting: 25° C., 1:1 binding model, KD=kd/ka, read-out: Granzyme B SPR Kd.

For orientation: Kd means the concentration at which binding is half-saturated. Turning to `C[C@@H]1NC(=O)[C@H](CO)NC(=O)[C@H](CCC(N)=O)NC(=O)[C@H](CC(=O)O)NC(=O)[C@H](CCC(=O)O)NC(=O)[C@H](Cc2ccccc2)NC(=O)[C@H](CC(N)=O)NC(=O)[C@H](Cc2ccccc2)NC(=O)CSC[C@@H](C(=O)NCC(=O)NCC(=O)N[C@@H](CCCCNC(=O)CCOCCOCCOCCOCCN(CCOCCOCCOCCOCCC(=O)NCCCC[C@H](NC(=O)CNC(=O)CNC(=O)[C@@H]2CSCC(=O)N[C@@H](Cc3ccccc3)C(=O)N[C@@H](CC(N)=O)C(=O)N[C@@H](Cc3ccccc3)C(=O)N[C@@H](CCC(=O)O)C(=O)N[C@@H](CC(=O)O)C(=O)N[C@@H](CCC(N)=O)C(=O)N[C@@H](CO)C(=O)N[C@@H](C)C(=O)N[C@@H](CC(=O)O)C(=O)N[C@@H]([C@@H](C)O)C(=O)N[C@@H](Cc3c[nH]c4ccccc34)C(=O)N[C@@H](CCC(N)=O)C(=O)N3CCC[C@H]3C(=O)N2)C(N)=O)C(=O)CCNC(=O)OC(C)(C)C)C(N)=O)NC(=O)[C@@H]2CCCN2C(=O)[C@H](CCC(N)=O)NC(=O)[C@H](Cc2c[nH]c3ccccc23)NC(=O)[C@H]([C@@H](C)O)NC(=O)[C@H](CC(=O)O)NC1=O` [Compound 7a, (*F.N.F.E.D.Q.S.A.D.T.W.Q.P.*C.G.G.K.NH2)-bis(PEG4)-β-Ala(Boc)-(*F.N.F.E.D.Q.S.A.D.T.W.Q.P.*C.G.G.K.NH2)] (I: {CH2CO}-FNFEDQSADTWQPCGGK-NH2 / II: {CH2CO}-FNFEDQSADTWQPCGGK-NH2; linker I:17-II:17 via X3; thioether I:N-I:14, II:N-II:14), the Kd under setting [1] was less than 0.1 nM. With `C[C@@H]1NC(=O)[C@H](CO)NC(=O)[C@H](CCC(N)=O)NC(=O)[C@H](CC(=O)O)NC(=O)[C@H](CCC(=O)O)NC(=O)[C@H](Cc2ccccc2)NC(=O)[C@H](CC(N)=O)NC(=O)[C@H](Cc2ccccc2)NC(=O)CSC[C@@H](C(=O)NCC(=O)NCC(=O)N[C@H](CCCCNC(=O)CCOCCOCCOCCOCCN(CCOCCOCCOCCOCCC(=O)NCCCC[C@@H](NC(=O)CNC(=O)CNC(=O)[C@@H]2CSCC(=O)N[C@@H](Cc3ccccc3)C(=O)N[C@@H](CC(N)=O)C(=O)N[C@@H](Cc3ccccc3)C(=O)N[C@@H](CCC(=O)O)C(=O)N[C@@H](CC(=O)O)C(=O)N[C@@H](CCC(N)=O)C(=O)N[C@@H](CO)C(=O)N[C@@H](C)C(=O)N[C@@H](CC(=O)O)C(=O)N[C@@H]([C@@H](C)O)C(=O)N[C@@H](Cc3c[nH]c4ccccc34)C(=O)N[C@@H](CCC(N)=O)C(=O)N3CCC[C@H]3C(=O)N2)C(N)=O)C(=O)CCNC(=S)Nc2ccc(CC3CN(CC(=O)O)CCN(CC(=O)O)CCN3CC(=O)O)cc2)C(N)=O)NC(=O)[C@@H]2CCCN2C(=O)[C@H](CCC(N)=O)NC(=O)[C@H](Cc2c[nH]c3ccccc23)NC(=O)[C@H]([C@@H](C)O)NC(=O)[C@H](CC(=O)O)NC1=O` (stereo partly drawn) [Compound 8a, (*F.N.F.E.D.Q.S.A.D.T.W.Q.P.*C.G.G.K.NH2)-bis(PEG4)-β-Ala(NOTA-1)-(*F.N.F.E.D.Q.S.A.D.T.W.Q.P.*C.G.G.K.NH2)] (I: {CH2CO}-FNFEDQSADTWQPCGG[dK]-NH2 / II: {CH2CO}-FNFEDQSADTWQPCGG[dK]-NH2; linker I:17-II:17 via X4; thioether I:N-I:14, II:N-II:14), the dissociation constant (Kd) is less than 0.1 nM. Regarding `CCC(=O)NCCCC[C@H](NC(=O)CNC(=O)CNC(=O)[C@@H]1CSCC(=O)N[C@@H](Cc2ccccc2)C(=O)N[C@@H](CC(N)=O)C(=O)N[C@@H](Cc2ccccc2)C(=O)N[C@@H](CCC(=O)O)C(=O)N[C@@H](CC(=O)O)C(=O)N[C@@H](CCC(N)=O)C(=O)N[C@@H](CO)C(=O)N2C[C@H](F)C[C@H]2C(=O)N[C@@H](CC(=O)O)C(=O)N[C@@H]([C@@H](C)O)C(=O)N[C@@H](Cc2c[nH]c3ccccc23)C(=O)N[C@@H](CCC(N)=O)C(=O)N2CCC[C@H]2C(=O)N1)C(N)=O` [Compound 14a, *F.N.F.E.D.Q.S.Prot4F.D.T.W.Q.P.*C.G.G.K(Prop).NH2] ({CH2CO}-FNFEDQS[Pro(trans-4-F)]DTWQPCGGK(Propionyl)-NH2; thioether N-14), the Kd under setting [1] turned out to be 5.1 nM.
